Assay results reported in patent US20240285971A1, “Intratumoral Alpha-Emitter Radiation in Combination with Vasculature Inhibitors” (priority 2021, published 2024).

System: Glioblastoma Multiforme (GBM) xerographs, U87 cells
Test: DaRT with systemic BEV on U87 GBM xenografts, BEV started five days post seed insertion (FIG. 3)
Type: in vivo, athymic nude mice
Details: U87 intracutaneous flank tumors; single seed in tumor; BEV or IgG 5 mg/kg i.p., 3 doses per week for 3 weeks, from five days post seed insertion; compared with other groups
Protocol: In the experiment, the efficacy of DaRT with a systemic administration of BEV was tested on Glioblastoma Multiforme (GBM) xerographs. U87 cells were intracutaneously inoculated in a total of 5·10^6 cells per mouse (in a volume of 100 μl) to the flank of athymic nude mice. The tumors were allowed to grow to an average size of 5-6 mm (longest diameter) for 9 days, when either a single DaRT or inert (non-radioactive control) seed was inserted to the middle of each tumor. Five days post seed insertion, each mouse received an i.p (intraperitoneal) administration of either IgG (control antibody) or BEV. This administration included 3 doses per week (5 mg/kg each) for 3 consecutive weeks (a total of 9 doses). The mice were divided to 4 treatment groups as follows: • a. Inert+Control IgG (untreated control); • b. Inert+BEV (Bev as a monotherapy); • c. DaRT+Control IgG (DaRT as a monotherapy); • d. DaRT+BEV (The combined modality)
Tumor volumes were monitored 3 times per week, along with radioactivity measurement using a Geiger counter to confirm that the DaRT seeds are present in the tumor.

## Bevacizumab
  tumor growth / tumor volume: moderate but significant attenuation in tumor growth
